From US12144814B2, “Compositions containing paraxanthine and beta-hydroxybutyrate or precursor for increasing neurological and physiological performance” (priority 2023, dated 2024)

Legend:
[1] = system: healthy trained male runners; assay: Berg-Washington Card Sorting Task Test before and after 10 km treadmill run; assay type: in vivo; settings: 200 mg paraxanthine, 200 mg caffeine, 5 g BHB, and combinations, after 10 km treadmill run
Description: The Berg-Washington Card Sorting Task (BCST) test is a test routinely used in the field to evaluate cognitive flexibility. The BCST test focuses on basic cognitive flexibility or set-shifting between old vs. new rule changes. The test involves reasoning, learning, executive control, and attention shifting. It is particularly sensitive to the subject's inability to shift set. Cards are shown with different colors (e.g., red, green, yellow, blue), different designs (e.g., circle, triangle, star, plus sign) and different numbers of symbols (e.g., 1-4) on the computer screen. Participants are asked to sort the cards by matching colors and/or designs and/or number of symbols, where the instruction for how to sort the cards can change, at different times during the test. Number of correct responses and number of errors (particular perservative errors, where the participant incorrectly continues sorting the cards under an old instruction, after a new instruction is given) are recorded. […] The testing is conducted under double blind, placebo controlled conditions. The subjects include 12 healthy trained male runners, aged 26±5 years. Baseline cognition tests are administered (PRE), the given supplement is ingested, and after 60 minutes of rest, a pre-race cognition test (PRE-EX) is administered. […]

[2] = system: healthy trained male runners; assay: Vigilance Task Test before and after 10 km treadmill run; assay type: in vivo; settings: 200 mg paraxanthine, 200 mg caffeine, 5 g BHB, and combinations, FIG. 13
Description: The Vigilance Task Test is another test routinely used in the field, and is used to evaluate a participants ability to sustain attention. The Vigilance Task Test is a sustained attention, reaction timed task test that measures the speed with which participants respond to a visual stimulus. The subjects respond to visual stimuli (e.g., a red dot) by pressing a key as soon as it appears on the computer screen. The light turns on at random, e.g., roughly every couple of seconds or so during the test. The speed of response is measured. Due to the random nature of the test, there is no learning effect. Mean response time is recorded. […] The testing is conducted under double blind, placebo controlled conditions. The subjects include 12 healthy trained male runners, aged 26±5 years. Baseline cognition tests are administered (PRE), the given supplement is ingested, and after 60 minutes of rest, a pre-race cognition test (PRE-EX) is administered. A 10 km run on a treadmill is then performed, followed by a post-race cognition test (POST), The cognition tests include a Vigilance Task Test (measuring the ability to remain heedfully vigilant) and a Berg-Washington Card Sorting Task Test (measuring cognitive flexibility).

[3] = elevated doses; cited from earlier work
[4] = Clinical Stroop Test study; assay type: in vivo; settings: paraxanthine 200 mg; BHB 5 g; paraxanthine 200 mg with BHB 5 g; 6-week period; FIGS. 15A-15C
Description: The Stroop effect refers to the delay in reaction time between congruent and incongruent stimuli. […] When paired with paraxanthine, the combination provides a synergistic improvement in mental acuity.

adenosine A2a receptors = adenosine A2a receptors (Homo sapiens, UniProt P29274); settings: compared with caffeine; cited from earlier work
adenosine A2a receptors, sequence (P29274 whole entry): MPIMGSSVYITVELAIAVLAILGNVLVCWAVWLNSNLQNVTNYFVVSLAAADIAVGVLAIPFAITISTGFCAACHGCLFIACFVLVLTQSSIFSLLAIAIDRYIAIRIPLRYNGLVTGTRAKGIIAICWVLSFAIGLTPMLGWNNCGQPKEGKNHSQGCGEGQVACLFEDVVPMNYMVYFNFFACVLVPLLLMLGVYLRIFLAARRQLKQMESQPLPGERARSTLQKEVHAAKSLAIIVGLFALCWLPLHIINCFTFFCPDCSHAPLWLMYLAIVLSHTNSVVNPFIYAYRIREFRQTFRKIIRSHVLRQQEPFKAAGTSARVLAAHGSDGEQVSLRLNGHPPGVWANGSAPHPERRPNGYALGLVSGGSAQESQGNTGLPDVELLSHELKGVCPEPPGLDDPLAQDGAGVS

healthy young adults [5] = assay: Vigilance Task Test; assay type: in vivo; settings: 200 mg paraxanthine; 5 g BHB; 200 mg paraxanthine and 5 g BHB; baseline and 1-6 hours after supplementation; FIG. 6
Description: The Vigilance Task Test is another test routinely used in the field, and is used to evaluate a participants ability to sustain attention. The Vigilance Task Test is a sustained attention, reaction timed task test that measures the speed with which participants respond to a visual stimulus. The subjects respond to visual stimuli (e.g., a red dot) by pressing a key as soon as it appears on the computer screen. The light turns on at random, e.g., roughly every couple of seconds or so during the test. The speed of response is measured. Due to the random nature of the test, there is no learning effect. Mean response time is recorded. When running each such tests, subjects are given either paraxanthine+BHB, paraxanthine alone, BHB alone, or a placebo. The dosage amounts are 200 mg paraxanthine and 5 g of BHB, 200 mg of paraxanthine alone, 5 g of BHB alone, or a placebo. The testing is conducted under double blind, placebo controlled conditions. The subjects include 13 healthy young adults (10 male, 3 female), aged 24±5 years; height 170.0±11.8 cm; weight 72.9±19.3 kg.

healthy young adults [6] = assay: Go/No Go Attention and Inhibitory Control Test; assay type: in vivo; settings: 200 mg paraxanthine; 5 g BHB; 200 mg paraxanthine and 5 g BHB; baseline and 1-6 hours after supplementation; FIG. 5
Description: Attention and inhibitory control can be measured using a Go/No Go Test, which is used to measure a participant's capacity for sustained attention and response control. The Go/No Go Test is routinely used in the field, and will be familiar to those of skill in the art. In the Go/No Go Test, participants watch a 2×2 array of squares, and then there is a successive presentation of letters (e.g., either P or R) and the participant responds to a target letter by pressing the corresponding button on a keyboard. The single letter (P or R) is presented in one of the 4 squares for 500 milliseconds, with 1500 milliseconds between subsequent stimuli. For the P-Go condition, participants are asked to press the P key in response to the letter P, and abstain from responding to the letter R. For the R-reversal condition, the participants are asked to respond to the letter R, and abstain when seeing the letter P. Mean response time, as well as percentage of correct answers are recorded. When running each such tests, subjects are given either paraxanthine+BHB, paraxanthine alone, BHB alone, or a placebo. The dosage amounts are 200 mg paraxanthine and 5 g of BHB, 200 mg of paraxanthine alone, 5 g of BHB alone, or a placebo. The testing is conducted under double blind, placebo controlled conditions. […]

Compound: Cn1c(=O)[nH]c2ncn(C)c2c1=O [paraxanthine, 1,7-dimethylxanthine]
- Berg-Washington Card Sorting Task Test correct responses, POST relative to PRE ([1]; FIG. 12A): some improvement in correct responses
- Berg-Washington Card Sorting Task Test errors, POST relative to PRE ([1]; FIGS. 12B-12D): reduced errors
- Vigilance Task Test response times [2]: some benefit
- hypothermia and reduced locomotor activity [3]: no such problems are observed
- Stroop test number of correct answers [4]: some improvement
- Stroop test reaction speed [4]: some improvement
- binding potency for adenosine A2a receptors (adenosine A2a receptors): higher binding potencies
- Vigilance Task Test average response time (healthy young adults [5]): faster response times
- Go/No Go Test average response time (healthy young adults [6]): faster response times
